The text below walks through data of PMC6007841 (Journal of medicinal chemistry, 2018).

One assay has as its system melanocortin receptors. Kind of assay: cAMP agonist pharmacology at the melanocortin receptors. The assay is classed as cell-based. Conditions: cAMP based.
In assay [1] the target is T1, hMC1R (Homo sapiens, UniProt Q01726). Description: cAMP AlphaScreen agonist assay, hMC1R. Conditions: for Agonist efficacy (in words): up to 100 μM, HEK293 cells, cAMP. (In general: Alpha assays give light when donor and acceptor beads are brought close together.)
Assay [2] concerns the target T2, hMC4R (Homo sapiens, UniProt P32245). Kind of assay: cAMP AlphaScreen agonist assay, hMC4R. Conditions: for Agonist efficacy (in words): hMC4R, up to 100 μM, HEK293 cells, cAMP.
The target of assay [3] is T3, mMC4R (Mus musculus, UniProt P56450). Kind of assay: Competitive displacement binding, [125I]-NDP-MSH, mMC4R. Particulars: HEK293 cells.
Assay [4] has as its target T1, hMC1R. Description: Competitive displacement binding, [125I]-NDP-MSH, hMC1R. Conditions: HEK293 cells.
Assay [5] deals with T2, hMC4R. Description: Competitive displacement binding, [125I]-NDP-MSH, hMC4R. Conditions: HEK293 cells.
Another assay relates to mice. Kind of assay: Fasting feeding paradigm after central administration in cannulated male mice. Type of assay: in vivo, mouse. Conditions: 100 μg at start of 22 h fast, vs saline.
The target in the next assay is mMC1R (Mus musculus, UniProt Q01727). Kind of assay: cAMP AlphaScreen agonist assay, mMC1R. Conditions: for Agonist efficacy (in words): mMC1R, up to 100 μM, HEK293 cells, cAMP.
The next assay concerns the target mMC3R (Mus musculus, UniProt P33033). Description: cAMP AlphaScreen agonist assay, mMC3R. Particulars: HEK293 cells; for Agonist efficacy (in words): up to 100 μM.
The next assay addresses mMC5R (Mus musculus, UniProt P41149). Kind of assay: cAMP AlphaScreen agonist assay, mMC5R. Conditions: for Agonist efficacy (in words): mMC5R, up to 100 μM, HEK293 cells, cAMP.
In a further assay the target is hMC3R (Homo sapiens, UniProt P41968). Kind of assay: cAMP AlphaScreen agonist assay, hMC3R. Conditions: for Agonist efficacy (in words): hMC3R, up to 100 μM, HEK293 cells, cAMP.
For a further assay, the target named is hMC5R (Homo sapiens, UniProt P33032). Description: cAMP AlphaScreen agonist assay, hMC5R. Conditions: for Agonist efficacy (in words): hMC5R, up to 100 μM, HEK293 cells, cAMP.
In assay [6] the target is T3, mMC4R. Kind of assay: cAMP AlphaScreen agonist assay, mMC4R.
The target of assay [7] is T1, hMC1R. Conditions: human MC1R; HEK293 cells; cited from earlier work.
The mark [8] stands for this setting: HEK293, read-out: Maximal stimulatory response at 100 μM.

pEC50: −log10 of the molar value. Several values for one entry are separate records, joined by “and”; a condition that tells them apart may be missing. Equal entries are not always repeated. Bridge positions count the residues as written; N and C are the ends. Ends that are not written are not given here. Peptide text beside a SMILES is read from it. Some results are limits rather than exact numbers.

T2 sequence (P32245 whole entry): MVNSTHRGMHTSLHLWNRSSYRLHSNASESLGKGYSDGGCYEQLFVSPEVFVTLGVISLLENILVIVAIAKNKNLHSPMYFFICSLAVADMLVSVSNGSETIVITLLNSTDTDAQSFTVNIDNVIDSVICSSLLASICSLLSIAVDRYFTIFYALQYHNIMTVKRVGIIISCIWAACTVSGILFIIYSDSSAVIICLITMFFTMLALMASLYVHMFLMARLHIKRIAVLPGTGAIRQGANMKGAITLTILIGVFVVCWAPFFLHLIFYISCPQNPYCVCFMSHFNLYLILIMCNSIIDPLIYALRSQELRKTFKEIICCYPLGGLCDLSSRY
T3 sequence (P56450 whole entry): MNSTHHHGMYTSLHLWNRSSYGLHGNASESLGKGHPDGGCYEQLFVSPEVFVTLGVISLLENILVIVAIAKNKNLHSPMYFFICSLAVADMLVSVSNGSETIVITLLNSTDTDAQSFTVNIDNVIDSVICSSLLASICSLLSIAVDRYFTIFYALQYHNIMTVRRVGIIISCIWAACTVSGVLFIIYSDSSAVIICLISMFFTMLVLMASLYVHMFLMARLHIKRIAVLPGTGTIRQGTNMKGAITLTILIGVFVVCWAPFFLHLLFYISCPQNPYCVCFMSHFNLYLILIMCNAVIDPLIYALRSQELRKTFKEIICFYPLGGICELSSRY
hMC3R, sequence (P41968 whole entry): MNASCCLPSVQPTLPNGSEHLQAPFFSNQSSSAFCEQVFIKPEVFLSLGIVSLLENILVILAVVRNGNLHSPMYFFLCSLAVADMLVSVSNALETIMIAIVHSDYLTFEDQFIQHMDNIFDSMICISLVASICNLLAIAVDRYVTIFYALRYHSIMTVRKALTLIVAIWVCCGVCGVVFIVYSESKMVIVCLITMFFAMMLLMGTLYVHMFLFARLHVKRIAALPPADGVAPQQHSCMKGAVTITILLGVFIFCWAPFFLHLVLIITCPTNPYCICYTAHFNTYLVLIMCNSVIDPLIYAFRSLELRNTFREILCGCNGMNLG
hMC5R, sequence (P33032 whole entry): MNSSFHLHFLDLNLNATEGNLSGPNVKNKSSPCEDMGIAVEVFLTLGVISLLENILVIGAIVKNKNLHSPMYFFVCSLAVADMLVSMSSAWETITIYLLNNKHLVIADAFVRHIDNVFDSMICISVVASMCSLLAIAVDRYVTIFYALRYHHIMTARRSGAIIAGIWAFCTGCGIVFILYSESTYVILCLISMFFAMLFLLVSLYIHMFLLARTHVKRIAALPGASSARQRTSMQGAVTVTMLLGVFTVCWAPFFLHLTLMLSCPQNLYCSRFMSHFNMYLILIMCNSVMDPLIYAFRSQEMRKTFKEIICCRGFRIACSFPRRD
mMC1R, sequence (Q01727 whole entry): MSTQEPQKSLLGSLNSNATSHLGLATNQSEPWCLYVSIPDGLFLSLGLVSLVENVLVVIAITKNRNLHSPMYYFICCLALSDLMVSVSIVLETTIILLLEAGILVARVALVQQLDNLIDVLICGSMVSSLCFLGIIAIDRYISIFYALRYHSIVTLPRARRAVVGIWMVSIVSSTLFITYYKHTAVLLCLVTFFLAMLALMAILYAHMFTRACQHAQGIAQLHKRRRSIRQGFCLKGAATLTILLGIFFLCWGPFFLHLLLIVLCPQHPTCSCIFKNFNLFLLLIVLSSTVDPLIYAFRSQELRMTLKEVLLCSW
T1 sequence (Q01726 whole entry): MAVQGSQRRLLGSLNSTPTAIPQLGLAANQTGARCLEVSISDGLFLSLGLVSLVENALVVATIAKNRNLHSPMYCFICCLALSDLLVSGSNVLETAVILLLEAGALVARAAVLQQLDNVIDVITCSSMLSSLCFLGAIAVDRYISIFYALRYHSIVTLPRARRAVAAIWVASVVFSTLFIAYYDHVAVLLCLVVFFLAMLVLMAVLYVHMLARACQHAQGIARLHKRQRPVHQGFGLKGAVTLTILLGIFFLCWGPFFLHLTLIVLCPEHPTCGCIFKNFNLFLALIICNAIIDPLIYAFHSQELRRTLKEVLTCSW
mMC5R, sequence (P41149 whole entry): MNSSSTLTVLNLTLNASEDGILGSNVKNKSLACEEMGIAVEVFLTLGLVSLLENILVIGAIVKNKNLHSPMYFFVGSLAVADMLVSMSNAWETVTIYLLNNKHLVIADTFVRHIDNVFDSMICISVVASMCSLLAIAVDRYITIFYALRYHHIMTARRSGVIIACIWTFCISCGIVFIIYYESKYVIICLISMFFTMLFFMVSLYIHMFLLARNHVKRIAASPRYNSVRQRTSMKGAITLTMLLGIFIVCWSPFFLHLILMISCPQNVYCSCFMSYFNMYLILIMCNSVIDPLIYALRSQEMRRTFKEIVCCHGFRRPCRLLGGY
mMC3R, sequence (P33033 whole entry): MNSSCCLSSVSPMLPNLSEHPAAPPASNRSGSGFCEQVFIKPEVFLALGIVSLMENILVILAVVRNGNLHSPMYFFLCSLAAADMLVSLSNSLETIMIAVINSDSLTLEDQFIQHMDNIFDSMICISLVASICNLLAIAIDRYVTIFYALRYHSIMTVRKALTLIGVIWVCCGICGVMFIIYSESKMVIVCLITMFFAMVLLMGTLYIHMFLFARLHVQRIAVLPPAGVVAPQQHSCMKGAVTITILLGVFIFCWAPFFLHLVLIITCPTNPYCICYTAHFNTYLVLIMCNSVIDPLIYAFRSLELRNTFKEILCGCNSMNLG

Consider `CC[C@H](C)[C@H](NC(=O)[C@H](CCCCN)NC(=O)[C@@H](NC(=O)[C@H](Cc1ccccc1)NC(=O)[C@@H](NC(=O)[C@@H]1CCCN1C(=O)[C@H](CS)NC(=O)[C@H](C)NC(=O)[C@H](CO)NC(=O)[C@H](Cc1ccc(O)cc1)NC(=O)[C@H](CC(C)C)NC(=O)[C@H](CS)NC(=O)[C@H](CCC(N)=O)NC(=O)CNC(=O)CNC(=O)[C@H](CO)NC(=O)[C@H](CO)NC(=O)[C@@H](NC(=O)[C@H](CS)NC(=O)[C@H](CC(N)=O)NC(=O)[C@H](Cc1ccc(O)cc1)NC(=O)[C@H](Cc1c[nH]cn1)NC(=O)[C@@H](N)CC(=O)O)C(C)C)[C@@H](C)CC)[C@@H](C)O)C(=O)N[C@@H](CCC(N)=O)C(=O)NCC(=O)N[C@H](C(=O)N[C@@H](CS)C(=O)N[C@@H](Cc1ccc(O)cc1)C(=O)N[C@@H](CCCNC(=N)N)C(=O)NCC(=O)N[C@@H](CCCCN)C(=O)N[C@@H](C)C(=O)N[C@@H](CCCCN)C(=O)N[C@@H](CS)C(=O)N[C@@H](CS)C(=O)N[C@@H](CCCCN)C(=O)O)[C@@H](C)O` [hBD1red] (H-DHYNCVSSGGQCLYSACPIFTKIQGTCYRGKAKCCK-OH; N-terminus and C-terminus assumed), for which the “Agonist activity at the melanocortin receptors (in words)” value in the assay on melanocortin receptors is reported as “no activity at the remaining receptor subtypes”. The “Agonist efficacy (in words)” value on hMC1R [1] (hMC1R) and at hMC4R [2] was “partial agonist stimulation” throughout.
Turning to `CC(C)C[C@@H]1NC(=O)[C@@H]2CSSC[C@@H]3NC(=O)[C@H]([C@@H](C)O)NC(=O)CNC(=O)[C@H](CCC(N)=O)NC(=O)[C@H](CC(C)C)NC(=O)[C@H](CCCCN)NC(=O)[C@H]([C@@H](C)O)NC(=O)[C@H](CC(N)=O)NC(=O)[C@H](CO)NC(=O)[C@@H]4CCCN4C(=O)[C@H](CSSC[C@@H](C(=O)N[C@@H](CCCCN)C(=O)N[C@@H](CO)C(=O)O)NC(=O)[C@H](CSSC[C@H](NC(=O)[C@H](CCCCN)NC(=O)[C@H](Cc4ccc(O)cc4)NC(=O)[C@H](CCC(N)=O)NC(=O)[C@@H](N)CC(=O)O)C(=O)N[C@@H](CC(C)C)C(=O)N[C@@H](CCC(N)=O)C(=O)N[C@@H](Cc4c[nH]cn4)C(=O)NCC(=O)NCC(=O)N[C@@H](Cc4ccccc4)C(=O)N2)NC(=O)[C@H](CC(N)=O)NC(=O)[C@@H]2CCCN2C(=O)[C@H](CCCCN)NC(=O)[C@H](CC(=O)O)NC(=O)[C@@H]2CCCN2C(=O)[C@H](CCCCN)NC3=O)NC(=O)[C@H](CO)NC(=O)[C@H](CO)NC(=O)[C@H](CCCNC(=N)N)NC1=O` [mBD1] (H-DQYKCLQHGGFCLRSSCPSNTKLQGTCKPDKPNCCKS-OH; disulfide 5-34, 12-27, 17-35; N-terminus and C-terminus assumed), the “Displacement of radiolabeled NDP-MSH (in words)” value on mMC4R [3], at hMC1R [4] and at hMC4R [5] was “unable to displace” each time. In addition, in the assay on mice, the “Body weight, specific time points” value is reported as “no significance was observed at specific time points”. For the same molecule, the “Cumulative food intake, follow-up analysis at specific time points” value in the assay on mice is listed as “follow-up analysis did not result in significance at a specific time point”. Besides, the “Agonist efficacy (in words)” value on mMC1R, on mMC3R, on mMC5R, on hMC1R [1] (hMC1R), on hMC3R and on hMC4R [2] was “full agonist efficacy with micromolar potency” in each case. For the same molecule, the “Agonist efficacy (in words)” value on hMC5R is “no activity”.
On to “FLPKTLRKFFCRIRGGRCAVLNCLGKEEQIGRCSNSGRKCCRKKK (cysteines drawn unpaired) [mBD3*red]”, for which the Emax at 100 µM came to 40% at mMC1R (setting [8]); 40% on mMC4R [6] (setting [8]); 35% at mMC5R (setting [8]); 45% on hMC1R [1] (setting [8]); 50% on hMC4R [2] (setting [8]); 40% on hMC5R (setting [8]). In addition, the “Maximal stimulatory response at 100 μM” value on mMC3R (100 μM, relative to maximal NDP-MSH signal) is reported as 35% @ 100 μM. In addition, the pEC50 (in general, −log10 of the EC50, conventionally taken in molar units) on hMC3R is less than 4.00.
Turning to `CC[C@H](C)[C@@H]1NC(=O)[C@H](CCCCN)NC(=O)[C@H]([C@@H](C)O)NC(=O)[C@H](Cc2ccccc2)NC(=O)[C@H]([C@@H](C)CC)NC(=O)[C@@H]2CCCN2C(=O)[C@@H]2CSSC[C@@H](C(=O)N[C@@H](CCCCN)C(=O)O)NC(=O)[C@@H]3CSSC[C@H](NC(=O)[C@H](CC(N)=O)NC(=O)[C@H](Cc4ccc(O)cc4)NC(=O)[C@H](Cc4c[nH]cn4)NC(=O)[C@@H](N)CC(=O)O)C(=O)N[C@@H](C(C)C)C(=O)N[C@@H](CO)C(=O)N[C@@H](CO)C(=O)NCC(=O)NCC(=O)N[C@@H](CCC(N)=O)C(=O)N[C@@H](CSSC[C@H](NC(=O)[C@H]([C@@H](C)O)NC(=O)CNC(=O)[C@H](CCC(N)=O)NC1=O)C(=O)N[C@@H](Cc1ccc(O)cc1)C(=O)N[C@@H](CCCNC(=N)N)C(=O)NCC(=O)N[C@@H](CCCCN)C(=O)N[C@@H](C)C(=O)N[C@@H](CCCCN)C(=O)N3)C(=O)N[C@@H](CC(C)C)C(=O)N[C@@H](Cc1ccc(O)cc1)C(=O)N[C@@H](CO)C(=O)N[C@@H](C)C(=O)N2` [hBD1] (H-DHYNCVSSGGQCLYSACPIFTKIQGTCYRGKAKCCK-OH; disulfide 5-34, 12-27, 17-35; N-terminus and C-terminus assumed), the “Displacement of radiolabeled NDP-MSH (in words)” value at hMC4R [5] was “not sufficient displacement of the radiolabel to generate an IC50 values”. Besides, the Binding affinity at hMC1R [7] is 30 nM and 30.0 nM. The “Agonist efficacy (in words)” value on hMC1R [1] (hMC1R) is recorded as “Full agonist efficacy”; at hMC3R, “no activity”; at hMC4R [2], “Full agonist efficacy”; on hMC5R, “no activity”.
Regarding `CC(C)C[C@H](NC(=O)[C@H](CS)NC(=O)[C@H](Cc1ccccc1)NC(=O)CNC(=O)CNC(=O)[C@H](Cc1c[nH]cn1)NC(=O)[C@H](CCC(N)=O)NC(=O)[C@H](CC(C)C)NC(=O)[C@H](CS)NC(=O)[C@H](CCCCN)NC(=O)[C@H](Cc1ccc(O)cc1)NC(=O)[C@H](CCC(N)=O)NC(=O)[C@@H](N)CC(=O)O)C(=O)N[C@@H](CCCNC(=N)N)C(=O)N[C@@H](CO)C(=O)N[C@@H](CO)C(=O)N[C@@H](CS)C(=O)N1CCC[C@H]1C(=O)N[C@@H](CO)C(=O)N[C@@H](CC(N)=O)C(=O)N[C@H](C(=O)N[C@@H](CCCCN)C(=O)N[C@@H](CC(C)C)C(=O)N[C@@H](CCC(N)=O)C(=O)NCC(=O)N[C@H](C(=O)N[C@@H](CS)C(=O)N[C@@H](CCCCN)C(=O)N1CCC[C@H]1C(=O)N[C@@H](CC(=O)O)C(=O)N[C@@H](CCCCN)C(=O)N1CCC[C@H]1C(=O)N[C@@H](CC(N)=O)C(=O)N[C@@H](CS)C(=O)N[C@@H](CS)C(=O)N[C@@H](CCCCN)C(=O)N[C@@H](CO)C(=O)O)[C@@H](C)O)[C@@H](C)O` [mBD1red] (H-DQYKCLQHGGFCLRSSCPSNTKLQGTCKPDKPNCCKS-OH; N-terminus and C-terminus assumed), the “Agonist efficacy (in words)” value is given as “did not possess agonist activity” on mMC3R; “did not possess agonist activity” at mMC4R [6] (mMC4R, up to 100 μM, HEK293 cells, cAMP); “full agonist” on hMC1R [1] (hMC1R); “unable to stimulate” on hMC3R; “unable to stimulate” at hMC5R. Besides, the “Lower agonist potency compared to the cyclic mBD1” value at hMC1R [1] (hMC1R, EC50 ratio mBD1red vs mBD1) was 3 fold.
On hMC3R, “FLPKTLRKFFCRIRGGRCAVLNCLGKEEQIGRCSNSGRKCCRKKK (disulfide 11-40, 18-33, 23-41) [mBD3*]” showed a pEC50 of less than 4.00.
On to “GIINTLQKYYCRVRGGRCAVLSCLPKEEQIGKCSTRGRKCCRRKK (cysteines drawn unpaired) [hBD3red]”, for which the pEC50 at mMC1R, at mMC5R and at hMC3R was less than 4.00 in each case. In addition, the “Agonist efficacy (in words)” value on mMC1R, at mMC5R and on hMC3R was “unable to stimulate” in each case.
